The test system of experiment [1] is Human immunodeficiency virus 1. The experiment is described as follows: Antiviral activity against HIV1 assessed as cytoprotective activity against viral-infection by NCI primary screen. It counts as functional, organism-based.
In experiment [2] the test system is Human immunodeficiency virus 2. Briefly: Antiviral activity against HIV2 assessed as cytoprotective activity against viral-infection by NCI primary screen. Format: functional, organism-based.

The values that follow come from ChEMBL document CHEMBL1149033, “Novel HIV-inhibitory halistanol sulfates F-H from a marine sponge, Pseudoaxinissa digitata” (J Nat Prod, 1994).

Active and inactive are the calls of the source. The calls are words filed in the database; no cut-off is given here.

A word on the EC50: it is the midpoint of the concentration-response curve. In the case of `CCC(C)(C)C(C)CC[C@@H](C)[C@H]1CC[C@H]2[C@@H]3C[C@H](OS(=O)(=O)[O-])[C@H]4C[C@H](OS(=O)(=O)[O-])[C@@H](OS(=O)(=O)[O-])C[C@]4(C)[C@H]3CC[C@]12C.[Na+].[Na+].[Na+]` (some centres undefined) [HALISTANOL SULFATE F], the EC50 in experiment [1] was 3 µg/mL. For the same compound, in experiment [2], the result was Active.
For `CC(C)[C@@H](C)CC[C@@H](C)[C@H]1CC[C@H]2[C@@H]3C[C@H](OS(=O)(=O)[O-])[C@H]4C[C@H](OS(=O)(=O)[O-])[C@@H](OS(=O)(=O)[O-])C[C@]4(C)[C@H]3CC[C@]12C.[Na+].[Na+].[Na+]` [HALISTANOL SULFATE G SODIUM], the EC50 in experiment [1] amounted to 6 µg/mL. Moreover, the outcome in experiment [2] was Active.
